# Measurements published in patent publication US10287255B2, “Compounds as histone deacetylase 6 inhibitors and pharmaceutical compositions comprising the same” (CHONG KUN DANG PHARMACEUTICAL CORP., priority 2014, dated 2019).
# How the values were obtained:
# human recombinant HDAC6 = target: T1, human recombinant HDAC6 (Homo sapiens, UniProt Q9UBN7); assay: HDAC6 enzyme activity inhibition assay (in vitro, fluorimetric); format: biochemical; settings: for HDAC6 selectivity (fold): HDAC6 selectivity over HDAC1; for IC50: human recombinant HDAC6, fluorimetric kit, same protocol as HDAC1
# T1 construct: purchased Calbiochem 382180
# T1 sequence (Q9UBN7 1-1215): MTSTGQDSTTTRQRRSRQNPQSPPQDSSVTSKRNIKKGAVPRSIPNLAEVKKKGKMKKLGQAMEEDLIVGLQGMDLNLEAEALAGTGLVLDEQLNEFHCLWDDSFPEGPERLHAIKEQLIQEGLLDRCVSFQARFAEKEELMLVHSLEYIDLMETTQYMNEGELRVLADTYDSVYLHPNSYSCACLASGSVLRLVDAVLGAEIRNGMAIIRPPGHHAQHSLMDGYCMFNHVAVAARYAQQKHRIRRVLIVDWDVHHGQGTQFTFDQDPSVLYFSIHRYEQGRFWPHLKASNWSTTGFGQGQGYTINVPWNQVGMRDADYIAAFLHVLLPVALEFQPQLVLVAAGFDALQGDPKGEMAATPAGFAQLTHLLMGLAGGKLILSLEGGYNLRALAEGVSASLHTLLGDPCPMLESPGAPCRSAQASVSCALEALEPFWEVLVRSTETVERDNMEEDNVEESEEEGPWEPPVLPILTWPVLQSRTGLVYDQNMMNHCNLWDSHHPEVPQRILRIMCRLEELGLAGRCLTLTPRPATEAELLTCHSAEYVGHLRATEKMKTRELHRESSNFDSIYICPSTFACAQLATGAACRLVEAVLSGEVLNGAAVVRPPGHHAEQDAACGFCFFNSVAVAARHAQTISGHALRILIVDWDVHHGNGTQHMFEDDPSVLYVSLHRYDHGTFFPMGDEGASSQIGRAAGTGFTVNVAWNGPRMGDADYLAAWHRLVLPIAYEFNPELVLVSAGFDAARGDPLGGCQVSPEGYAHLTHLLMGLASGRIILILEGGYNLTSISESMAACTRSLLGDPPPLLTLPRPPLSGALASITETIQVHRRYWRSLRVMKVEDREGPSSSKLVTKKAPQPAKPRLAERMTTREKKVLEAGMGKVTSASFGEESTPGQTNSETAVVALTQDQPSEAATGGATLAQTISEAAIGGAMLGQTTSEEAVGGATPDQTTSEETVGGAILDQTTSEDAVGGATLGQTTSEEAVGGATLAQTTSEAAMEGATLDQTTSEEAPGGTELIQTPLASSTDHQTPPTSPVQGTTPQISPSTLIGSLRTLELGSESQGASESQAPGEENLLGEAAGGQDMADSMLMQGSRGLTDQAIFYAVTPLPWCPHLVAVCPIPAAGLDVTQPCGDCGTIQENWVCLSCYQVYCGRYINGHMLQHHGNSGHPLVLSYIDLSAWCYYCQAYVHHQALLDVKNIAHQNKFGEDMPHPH
# Summary of the method: (§1)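 IC50 values derive from fluorescence (Ex 360, Em 460) after developer treatment (30 min) of reactions of recombinant human HDAC1 or HDAC6 with 10 μM Fluor de Lys-SIRT1 substrate (60 min, 30 °C). Compounds were serially diluted 5-fold; 0.3 μg enzyme was used for HDAC1, with HDAC6 tested identically.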
# human recombinant HDAC1 = target: T2, human recombinant HDAC1 (Homo sapiens, UniProt Q13547); assay: HDAC1 enzyme activity inhibition assay (in vitro, fluorimetric); format: biochemical; settings: human recombinant HDAC1, fluorimetric kit, 30° C. 60 minutes
# T2 construct: purchased Enzo Life Science BML-SE456
# T2 sequence (Q13547 whole entry): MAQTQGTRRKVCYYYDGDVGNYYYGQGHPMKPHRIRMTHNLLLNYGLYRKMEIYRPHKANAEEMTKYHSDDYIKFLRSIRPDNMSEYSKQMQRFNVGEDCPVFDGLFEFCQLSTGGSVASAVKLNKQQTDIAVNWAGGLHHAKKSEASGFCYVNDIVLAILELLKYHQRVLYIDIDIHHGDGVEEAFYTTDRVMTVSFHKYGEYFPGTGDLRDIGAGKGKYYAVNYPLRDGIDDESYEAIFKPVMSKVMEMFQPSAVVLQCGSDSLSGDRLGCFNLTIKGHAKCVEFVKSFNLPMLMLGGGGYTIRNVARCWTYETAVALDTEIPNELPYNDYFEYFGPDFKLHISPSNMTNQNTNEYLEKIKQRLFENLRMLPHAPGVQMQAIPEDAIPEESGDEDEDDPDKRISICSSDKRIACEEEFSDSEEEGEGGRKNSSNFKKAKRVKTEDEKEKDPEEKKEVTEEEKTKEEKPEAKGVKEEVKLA
# Summary of the method: as §1
Compound,HDAC6 selectivity (fold) (human recombinant HDAC6),IC50 (human recombinant HDAC6),IC50 (human recombinant HDAC1)
"CCN(CC)CC(C)NCc1cccc(C(=O)N2[C@H](C)CN(Cc3ccc(C(=O)NO)cc3)C[C@@H]2C)c1 (stereo partly drawn) [Compound 440, 4-(((3R,5S)-4-(3-(((1-(diethylamino)propan-2-yl)amino)methyl)benzoyl)-3,5-dimethylpiperazin-1-yl)methyl)-N-hydroxybenzamide]",71 fold,78 nM,5600 nM
"C[C@@H]1CN(Cc2ccc(C(=O)NO)cc2)C[C@H](C)N1C(=O)c1cccc(CN2CCCC2)c1 [Compound 423, 4-(((3R,5S)-3,5-dimethyl-4-(3-(pyrrolidin-1-ylmethyl)benzoyl)piperazin-1-yl)methyl)-N-hydroxybenzamide]",22 fold,46 nM,1000 nM
"C[C@@H]1CN(Cc2ccc(C(=O)NO)cc2)C[C@H](C)N1Cc1cccc(CN2CCN(Cc3ccccc3)CC2)c1 [Compound 385, 4-(((3R,5S)-4-(3-((4-benzylpiperazin-1-yl)methyl)benzyl)-3,5-dimethylpiperazin-1-yl)methyl)-N-hydroxybenzamide]",>53 fold,189 nM,> 10000 nM
"C[C@@H]1CN(C(=O)c2ccc(C(=O)NO)cc2)C[C@H](C)N1Cc1ccccc1 [Compound 814, 4-((3R,5S)-4-benzyl-3,5-dimethylpiperazine-1-carbonyl)-N-hydroxybenzamide]",20 fold,990 nM,20600 nM
"C[C@@H]1CN(Cc2ccc(C(=O)NO)cc2)C[C@H](C)N1C(=O)C1CC1 [Compound 295, 4-(((3R,5S)-4-(cyclopropanecarbonyl)-3,5-dimethylpiperazin-1-yl)methyl)-N-hydroxybenzamide]",72 fold,79 nM,5700 nM
"C[C@@H]1CN(Cc2ccc(C(=O)NO)cc2)C[C@H](C)N1C(=O)c1ccc(CN2CCCCC2)cc1 [Compound 459, 4-(((3R,5S)-3,5-dimethyl-4-(4-(piperidin-1-ylmethyl)benzoyl)piperazin-1-yl)methyl)-N-hydroxybenzamide]",25 fold,149 nM,3800 nM
"C[C@@H]1CN(Cc2ccccc2-c2ccncc2)C[C@H](C)N1Cc1ccc(C(=O)NO)cc1 [Compound 350, 4-(((2S,6R)-2,6-dimethyl-4-(2-(pyridin-4-yl)benzyl)piperazin-1-yl)methyl)-N-hydroxybenzamide]",17 fold,194 nM,3300 nM
"C[C@@H]1CN(C(=O)c2ccccc2-c2ccco2)C[C@H](C)N1Cc1ccc(C(=O)NO)cc1 [Compound 276, 4-(((2S,6R)-4-(2-(furan-2-yl)benzoyl)-2,6-dimethylpiperazin-1-yl)methyl)-N-hydroxybenzamide]",36 fold,337 nM,12300 nM
"CC(C)NC(=O)N1[C@H](C)CN(Cc2ccc(C(=O)NO)cc2)C[C@@H]1C [Compound 098, (2S,6R)-4-(4-(hydroxycarbamoyl)benzyl)-N-isopropyl-2,6-dimethylpiperazine-1-carboxamide]",>133 fold,75 nM,> 10000 nM
"C[C@@H]1CN(Cc2cccc(-c3ccoc3)c2)C[C@H](C)N1Cc1ccc(C(=O)NO)cc1 [Compound 396, 4-(((2S,6R)-4-(3-(furan-3-yl)benzyl)-2,6-dimethylpiperazin-1-yl)methyl)-N-hydroxybenzamide]",4 fold,406 nM,1700 nM
"CCCCN1[C@H](C)CN(Cc2ccc(C(=O)NO)cc2)C[C@@H]1C [Compound 275, 4-(((3R,5S)-4-butyl-3,5-dimethylpiperazin-1-yl)methyl)-N-hydroxybenzamide]",>21 fold,475 nM,> 10000 nM
"C[C@@H]1CN(Cc2ccc(C(=O)NO)cc2)C[C@H](C)N1Cc1cccc(C(=O)N2CCOCC2)c1 [Compound 446, 4-(((3R,5S)-3,5-dimethyl-4-(3-(morpholine-4-carbonyl)benzyl)piperazin-1-yl)methyl)-N-hydroxybenzamide]",33 fold,114 nM,3800 nM
"CC(C)=CCN1[C@H](C)CN(Cc2ccc(C(=O)NO)cc2)C[C@@H]1C [Compound 272, 4-(((3R,5S)-3,5-dimethyl-4-(3-methylbut-2-en-1-yl)piperazin-1-yl)methyl)-N-hydroxybenzamide]",67 fold,182 nM,12200 nM
